Publication PMC2775898 (The EMBO Journal, 2009)
Where a SMILES comes first, the peptide text is derived from it. The star is where a group is joined. Biotin = O=C1N[C@H]2[C@H](CS[C@H]2CCCCC(=O)*)N1

target: T1, Tiam2 PHCCEx domain (Mus musculus, UniProt Q6ZPF3); assay: Equilibrium SPR binding of biotinylated peptides to the Tiam2 PHCCEx domain; settings: N-terminal biotinylated peptide immobilized
T1 sequence (Q6ZPF3 500-757): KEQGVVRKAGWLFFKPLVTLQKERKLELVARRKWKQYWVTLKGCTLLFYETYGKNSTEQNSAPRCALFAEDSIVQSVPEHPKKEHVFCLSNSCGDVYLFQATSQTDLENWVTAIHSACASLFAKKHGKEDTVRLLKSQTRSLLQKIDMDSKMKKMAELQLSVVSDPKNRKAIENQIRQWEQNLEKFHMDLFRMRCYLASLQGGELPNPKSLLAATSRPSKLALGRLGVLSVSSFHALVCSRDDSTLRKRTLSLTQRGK

Binding to the Tiam2 PHCCEx domain (in words)	SMILES
in the micromolar range	CC[C@H](C)[C@H](NC(=O)[C@H](CC(=O)O)NC(=O)[C@H](CO)NC(=O)[C@@H]1CCCN1C(=O)[C@H](CCC(=O)O)NC(=O)[C@@H](NC(=O)CNC(=O)[C@H](C)NC(=O)CCCC[C@@H]1SC[C@@H]2NC(=O)N[C@@H]21)[C@@H](C)O)C(=O)N[C@H](C(=O)N[C@H](C(=O)N1CCC[C@H]1C(=O)N[C@@H](CC(C)C)C(=O)N[C@@H](CCCNC(=N)N)C(=O)N[C@H](C(=O)N[C@H](C(=O)N[C@@H](CCC(=O)O)C(=O)N[C@@H](CC(N)=O)C(=O)N[C@@H](CC(N)=O)C(=O)N[C@@H](Cc1ccc(O)cc1)C(=O)O)[C@@H](C)O)[C@@H](C)O)[C@@H](C)CC)[C@@H](C)CC [ephrin B1 294–312] (Biotin-AGTEPSDIIIPLRTTENNY-OH; C-terminus assumed)
in the micromolar range	CC[C@H](C)[C@H](NC(=O)[C@@H](NC(=O)[C@H](CC(=O)O)NC(=O)[C@H](CO)NC(=O)[C@@H]1CCCN1C(=O)[C@H](CCC(=O)O)NC(=O)[C@H](CO)NC(=O)CNC(=O)[C@H](CC(N)=O)NC(=O)CCCC[C@@H]1SC[C@@H]2NC(=O)N[C@@H]21)C(C)C)C(=O)N[C@H](C(=O)N1CCC[C@H]1C(=O)N[C@@H](CC(C)C)C(=O)N[C@@H](CCCNC(=N)N)C(=O)N[C@H](C(=O)N[C@@H](C)C(=O)N[C@@H](CC(=O)O)C(=O)N[C@@H](CO)C(=O)N[C@H](C(=O)N[C@@H](Cc1ccccc1)C(=O)O)C(C)C)[C@@H](C)O)[C@@H](C)CC [ephrin B2 285–302] (Biotin-NGSEPSDVIIPLRTADSVF-OH; C-terminus assumed)
weaker binding	CC[C@H](C)[C@H](NC(=O)CNC(=O)[C@H](CC(C)C)NC(=O)[C@H](CCC(=O)O)NC(=O)CNC(=O)[C@@H]1CCCN1C(=O)[C@H](CCC(=O)O)NC(=O)[C@H](C)NC(=O)[C@H](CCC(=O)O)NC(=O)[C@H](CCCNC(=N)N)NC(=O)CCCC[C@@H]1SC[C@@H]2NC(=O)N[C@@H]21)C(=O)N[C@@H](C)C(=O)N[C@@H](CC(C)C)C(=O)N[C@@H](CCCNC(=N)N)C(=O)NCC(=O)NCC(=O)NCC(=O)N[C@H](C(=O)N[C@@H](C)C(=O)N[C@@H](CC(=O)O)C(=O)O)[C@@H](C)O [ephrin B3 286–303] (Biotin-REAEPGELGIALRGGGTAD-OH; C-terminus assumed)
